Here are results for 1 compound from patent US20050201991A1, “Stem cell culture” (priority 2002, published 2005).

This experiment has as its system NTERA2 human EC cells. In words: Two fluorochrome flow cytometric analysis of FGF-4 reporter with SSEA-3 labelling on differentiation. The settings on record: retinoic acid treated versus undifferentiated NTERA2 cells. In kind it is cell-based. As to the method:
Variations of these vectors including pTK-GFP, p5FGF4EN-GFP and p5FGF4EN-Bact-GFP with WES site linking an antibiotic selection marker, for example puromycin or neonmycin resistance, to the expression of GFP were also created (IRESantibiotic selection marker sequences were inserted in the Notl cloning site immediately 3′ to the GFP sequence).
The human embryonal carcinoma (EC) cell line, NTERA2 cl D1, was cultured in DMEM with 10% fetal calf serum as previously described (Andrews et al 1984). […]
Human EC and ES cells were transfected by the same protocol: After incubation at 37° C. overnight the cells were transfected, following the manufacturer's protocol, as follows: 9.5 μg DNA was diluted into 300 μl 0.15 M NaCl and mixed with 21 μl ExGen 500 (MBI Fermentas) and vortexed. […] After incubating for 6-12 hours at 37 C, the medium was removed and the cells fed with fresh medium and fluorescence observed by microscopy under UV epi-illumination.
Cell surface antigen expression of cultured cells was assessed by indirect immunofluorescence detected by flow cytofluorimetry, after harvesting the cultures as single cell suspensions using trypsin-EDTA, as described previously (Andrews et al 1987, Fenderson et al 1987). […] In some experiments, cells that were either positive or negative for SSEA3 and SSEA1 were isolated by fluorescence activated cell sorting (Andrews et al 1987).
On the technique in general: Flow cytometry measures light scatter and fluorescence of single cells or particles in a stream.

Take `CC1=C(/C=C/C(C)=C/C=C/C(C)=C/C(=O)O)C(C)(C)CCC1` [retenoic acid, all-trans-retinoic acid]: the SSEA-3 expression result was “reduction”. Moreover, for the setting “p5FGF4EN-GFPIP reporter”, the “GFP expression from FGF-4 reporter” value is “greatly reduced”.
